From PubChem BioAssay AID1259407 (Chemical Carcinogenesis Research Information System (CCRIS), 2018)
The source made the active and inactive calls. No rule for the calls is given here.

Test system: CCRIS mutagenicity, Ames/micronucleus/aberration tests
Assay: CCRIS mutagenicity studies
[1] = Test System: AMES SALMONELLA TYPHIMURIUM, Strain/Indicator: TA98, Metabolic Activation: NONE, Method: STANDARD PLATE
[2] = Test System: AMES SALMONELLA TYPHIMURIUM, Strain/Indicator: TA98, Metabolic Activation: RAT, LIVER, S-9, AROCLOR 1254, Method: STANDARD PLATE
[3] = Test System: AMES SALMONELLA TYPHIMURIUM, Strain/Indicator: TA100, Metabolic Activation: NONE, Method: STANDARD PLATE
[4] = Test System: AMES SALMONELLA TYPHIMURIUM, Strain/Indicator: TA100, Metabolic Activation: RAT, LIVER, S-9, AROCLOR 1254, Method: STANDARD PLATE
[5] = Test System: AMES SALMONELLA TYPHIMURIUM, Strain/Indicator: TA1535, Metabolic Activation: NONE, Method: STANDARD PLATE
[6] = Test System: AMES SALMONELLA TYPHIMURIUM, Strain/Indicator: TA1535, Metabolic Activation: RAT, LIVER, S-9, AROCLOR 1254, Method: STANDARD PLATE
[7] = Test System: AMES SALMONELLA TYPHIMURIUM, Strain/Indicator: TA1537, Metabolic Activation: NONE, Method: STANDARD PLATE
[8] = Test System: AMES SALMONELLA TYPHIMURIUM, Strain/Indicator: TA1537, Metabolic Activation: RAT, LIVER, S-9, AROCLOR 1254, Method: STANDARD PLATE

Row | Compound | mutagenic call [1] | mutagenic call [2] | mutagenic call [3] | mutagenic call [4] | mutagenic call [5] | mutagenic call [6] | mutagenic call [7] | mutagenic call [8] | also measured
1 | CC(=O)O[C@H]1C[C@@H]2C(COC(=O)CC(C)C)=CO[C@@H](OC(=O)CC(C)C)[C@@H]2[C@@]12CO2 | inactive; negative | inactive; negative | inactive; negative | active; positive | inactive; negative | inactive; negative | inactive; negative | inactive; negative | mutagenic call (Test System: E. COLI, Strain/Indicator: WP2, Metabolic Activation: NONE, Method: STANDARD PLATE): inactive; negative; mutagenic call (Test System: E. COLI, Strain/Indicator: WP2, Metabolic Activation: RAT, LIVER, S-9, AROCLOR 1254, Method: STANDARD PLATE): active; positive; mutagenic call (Test System: E. COLI, Strain/Indicator: WP2 UVRA, Metabolic Activation: NONE, Method: STANDARD PLATE): active; positive; mutagenic call (Test System: E. COLI, Strain/Indicator: WP2 UVRA, Metabolic Activation: RAT, LIVER, S-9, AROCLOR 1254, Method: STANDARD PLATE): active; positive
2 | Cc1ccccc1NS(=O)(=O)c1cccc2cccnc12 | inactive; negative | inactive; negative | inactive; negative | inactive; negative | inactive; negative | inactive; negative | inactive; negative | inactive; negative | 
3 | O=CC(O)C(O)C(O)C(O)COC1OC(COC2OC(CO)C(O)C(O)C2O)C(O)C(O)C1O (configuration not stated) | inactive; negative | inactive; negative | inactive; negative | inactive; negative | inactive; negative | inactive; negative | inactive; negative | inactive; negative | mutagenic call (Test System: AMES SALMONELLA TYPHIMURIUM, Strain/Indicator: TA98, Metabolic Activation: HAMSTER, LIVER, S-9, AROCLOR 1254, Method: STANDARD PLATE): inactive; negative; mutagenic call (Test System: AMES SALMONELLA TYPHIMURIUM, Strain/Indicator: TA100, Metabolic Activation: HAMSTER, LIVER, S-9, AROCLOR 1254, Method: STANDARD PLATE): inactive; negative; mutagenic call (Test System: AMES SALMONELLA TYPHIMURIUM, Strain/Indicator: TA1535, Metabolic Activation: HAMSTER, LIVER, S-9, AROCLOR 1254, Method: STANDARD PLATE): inactive; negative; mutagenic call (Test System: AMES SALMONELLA TYPHIMURIUM, Strain/Indicator: TA1537, Metabolic Activation: HAMSTER, LIVER, S-9, AROCLOR 1254, Method: STANDARD PLATE): inactive; negative; mutagenic call (Test System: AMES SALMONELLA TYPHIMURIUM, Strain/Indicator: TA1538, Metabolic Activation: HAMSTER, LIVER, S-9, AROCLOR 1254, Method: STANDARD PLATE): inactive; negative; mutagenic call (Test System: AMES SALMONELLA TYPHIMURIUM, Strain/Indicator: TA1538, Metabolic Activation: NONE, Method: STANDARD PLATE): inactive; negative; mutagenic call (Test System: AMES SALMONELLA TYPHIMURIUM, Strain/Indicator: TA1538, Metabolic Activation: RAT, LIVER, S-9, AROCLOR 1254, Method: STANDARD PLATE): inactive; negative; mutagenic call (Test System: Mouse lymphoma, Strain/Indicator: L5178Y (tk+/tk-), Metabolic Activation: None, Method: Suspension/plate): inactive; negative; mutagenic call (Test System: Mouse lymphoma, Strain/Indicator: L5178Y (tk+/tk-), Metabolic Activation: Rat, Liver, S-9, Aroclor 1254, Method: Suspension/plate): inactive; negative
